Measurements: paper PMC5989765, “The safety, tolerability, and pharmacokinetic profile of GSK2838232, a novel 2nd generation HIV maturation inhibitor, as assessed in healthy subjects” (Pharmacology Research & Perspectives, 2018)
In brackets after ≈: the same amount, converted by molar mass. Entries after “also recorded” stand apart in the source; their conditions may differ. Read-outs that look alike come from different tables or passages of the source.

Key:
HIV‐1 = test system: HIV‐1; parameters: method as in earlier work; details: cited from earlier work
[1] = preclinical; cited from earlier work
[2] = Study HMI116787: single ascending dose, food effect and RTV boosting, SDD PiB, healthy subjects; assay type: in vivo, human; details: for Cmax / Tmax / concentration at 24 h / AUC / half-life: human, plasma, oral; for Cmax / Tmax / concentration at 24 h / AUC / half-life / CL/F: fasted; for Cmax / AUC / half-life / CL/F: geometric mean (95% CI); for Tmax / concentration at 24 h: median (range); for concentration at 24 h: read-out: C24; for AUC: read-out: AUC(0‐∞); for half-life: read-out: t½ (converted)
Experimental: This study was a first‐in‐human, double‐blind, randomized, placebo‐controlled, single dose escalation study of GSK2838232 in healthy subjects conducted in two sequential cohorts with four dosing visits in each cohort. At each visit in each cohort, 6 out of the 8 subjects were randomized to receive the active dose, and 2 out of the 8 subjects were randomized to placebo. Cohort 1 tested escalating doses of 5, 10, and 20 mg GSK2838232 as a Spray Dried Dispersion (SDD) delivered as a powder‐in‐bottle (PiB) suspension; Cohort 2 tested the same formulation at doses of 50 and 100 mg, the effect of a high‐fat breakfast on a 50 mg dose, and the impact of steady‐state dosing of 100 mg once‐daily (QD) RTV on the PK of a single 10 mg dose of GSK2838232 (administered on Day 10 of the 12 days of RTV dosing). All doses were administered in a fasted state, except in the food effect portion of the study.
(§1) Blood samples were taken via an indwelling cannula or by direct venipuncture, collected into a di‐potassium ethylenediaminetetraacetic acid (K2 EDTA) tube, and placed on wet ice. Samples were centrifuged at approximately 1500g for 10 minutes at approximately 4°C. Exactly 500 μL of the resulting plasma was transferred into labeled 1.4 mL Matrix TrakMate Tubes containing exactly 500 μL of 50 mmol/L citrate buffer, pH 4.0, and mixed well. When 500 μL of plasma was not able to be transferred, the ratio of plasma to citrate buffer was kept at 1:1. Buffered plasma samples were kept on ice and frozen at −70°C within 1 hour of collection. Plasma samples were analyzed for GSK2838232 using a validated analytical method based on protein precipitation, followed by high performance liquid chromatography with tandem mass spectrometry (HPLC/MS/MS) analysis.
(§2) Extracts were analyzed using HPLC (Shimadzu, Nexera, 30 series) and tandem mass spectrometry detection (HPLC‐MS/MS). The mass spectrometer used was an API‐5500 using IonSpray interface (500 V) in positive mode monitoring. The mass transitions were 809.5 to 255.1 and 816.5 to 262.1 for GSK2838232 and [2H7] GSK2838232 (the isotopically labeled internal standard), respectively. The chromatographic conditions utilized a Waters Acquity UPLC BEH C18 column (50 × 2.1 mm, 1.7 μm) with mobile phases consisting of 1 mmol/L ammonium formate:formic acid (100:0.005) (mobile phase A) and acetonitrile:formic acid (100:0.1) (mobile phase B) at a flow rate of 0.6 mL/min, with pump B at 63% held for 2 minutes. The assay was validated to have precision (%RSD) of 0.7%‐6.5% (within‐run) and 1.0%‐5.9% RSD (between‐run) and with accuracy (%bias) of 0.0%‐1.6%. […] The lower limit of quantification (LLQ) was 0.5 ng/mL, using a 50 μL aliquot of K2EDTA acidified plasma. The higher limit of quantification (HLQ) was 500 ng/mL.
(§3) The PK parameters were calculated by standard noncompartmental analysis based on actual sampling times using WinNonlin Version 6.3 or higher. Estimation of AUC used the linear up/log down trapezoidal rule.

[3] = in vitro, across all species; cited from earlier work
[4] = Study 200207: repeat dose 20-50 mg QD for 8 days, SDD, healthy subjects; assay type: in vivo, human
Experimental: This study was conducted in parallel with Study 200912 and was planned as a two‐part, double‐blind, placebo‐controlled, repeat dose escalation study of GSK2838232 with and without RTV for 8‐11 days. Subjects were randomized 3:1 to receive GSK2838232 or placebo. Part A was designed to evaluate GSK2838232 given alone for 8 days (20 mg and 50 mg GSK2838232 once‐daily (QD) for 8 days, respectively) and Part B was designed to evaluate GSK2838232 when co‐administered with 100 mg RTV QD for 11 days. Because of the occurrence of an SAE that was eventually determined to be unlikely to be related to GSK2838232 (see Safety discussion), the study was terminated early after one cohort in Part B (10 mg GSK2838232 + 100 mg RTV QD) had completed only 5 days of the planned 11‐day regimen.
as §1, §2, §3

[5] = Pharmacokinetics in healthy subjects, statements across the Phase I studies; assay type: in vivo, human; details: for half-life: human, plasma, oral
Experimental: as §1, §2, §3

[6] = 50 mg Fed (high, 60% fat meal) versus 50 mg fasted, SDD PiB formulation, Study HMI116787
[7] = RTV for 10 days prior to 10 mg SDD, Study 116787
[8] = single 5 mg SDD PiB, without ritonavir, Study HMI116787
[9] = single 10 mg SDD PiB, with ritonavir 100 mg QD (Day 10 of 12), Study HMI116787
[10] = single 10 mg SDD PiB, without ritonavir, Study HMI116787
[11] = single 20 mg SDD PiB, without ritonavir, Study HMI116787
[12] = single 50 mg SDD PiB, without ritonavir, Study HMI116787
[13] = single 100 mg SDD PiB, without ritonavir, Study HMI116787
[14] = repeated daily dosing with 50 mg, unboosted

CC(C)C1=C2[C@H]3CC[C@@H]4[C@@]5(C)CC[C@H](OC(=O)CC(C)(C)C(=O)O)C(C)(C)[C@@H]5CC[C@@]4(C)[C@]3(C)CC[C@@]2([C@@H](O)CN(CCN(C)C)Cc2ccc(Cl)cc2)CC1=O [GSK2838232]
shift in IC90 with human serum albumin added (HIV‐1; assays to which human serum albumin was added): no significant shift
IC90 in cell‐based assays (termed PA‐IC90, protein‐adjusted 90% inhibitory concentration) (HIV‐1; calculated): 5 ng/mL (≈ 6.18 nM)
IC90 (HIV‐1; calculated, read-out: IC90 in cell‐based assays): 6.4 nM
activity to viruses with key resistance mutations (HIV‐1; panel of viruses): retains activity
metabolism pathways [1]: Phase I oxidation (primarily by cytochrome P450 [CYP] 3A4) and Phase II glucuronidation
urinary excretion of drug‐related material [1]: ≤ 1 % administered dose
Geometric least square mean ratio [90% CI], AUC(0‐∞) [2, 6]: 1.61 (1.266, 2.053)
Geometric least square mean ratio [90% CI], C max [2, 6]: 1.60 (0.995, 2.566)
change in t½ with RTV [2, 7]: approximately doubled
increase in 24‐h concentration (C24) with RTV [2, 7]: ~6.4 fold
increase in AUC(0‐t) with RTV [2, 7]: approximately 10 fold
increase in C max with RTV [2, 7]: ~3 fold
bioavailability after meal relative to the fasted state ([2]; SDD PiB formulation, high‐fat (60%) meal, Study HMI116787): approximately 1.6 fold
Cmax [2, 8]: 1.52 ng/mL
Tmax [2, 8]: 2.24 h
concentration at 24 h [2, 8]: 0 ng/mL
Cmax [2, 9]: 9.1 ng/mL
AUC [2, 9]: 389 ng·h/mL
half-life [2, 9]: 33.7 h
Tmax [2, 9]: 4 h
concentration at 24 h [2, 9]: 4.64 ng/mL
Cmax [2, 10]: 3.49 ng/mL
Tmax [2, 10]: 1.76 h
concentration at 24 h [2, 10]: 0.63 ng/mL
Cmax [2, 11]: 8.09 ng/mL
AUC [2, 11]: 104 ng·h/mL
half-life [2, 11]: 14.1 h
Tmax [2, 11]: 1.75 h
concentration at 24 h [2, 11]: 1.54 ng/mL
Cmax [2, 12]: 13.1 ng/mL
AUC [2, 12]: 195 ng·h/mL
half-life [2, 12]: 17.4 h
Tmax [2, 12]: 2.02 h
concentration at 24 h [2, 12]: 3.11 ng/mL
Cmax [2, 13]: 23.7 ng/mL
AUC [2, 13]: 385 ng·h/mL
half-life [2, 13]: 18.8 h
Tmax [2, 13]: 2.75 h
concentration at 24 h [2, 13]: 5.93 ng/mL
CL/F [2, 9]: 25.7 (18.8, 35.1) L/h
CL/F [2, 11]: 193 (147, 254) L/h
CL/F [2, 12]: 256 (203, 324) L/h
CL/F [2, 13]: 260 (202, 335) L/h
increase in C max by RTV ([2]; single dose after steady‐state predosing with RTV 100 mg QD): 3 fold
plasma protein binding [3]: > 99.9%
relatedness of the two cardiovascular events ([4]; Study 200207, after expert evaluation): the likelihood of a relationship was very low
cardiovascular finding: arrhythmia ([4]; Study 200207, one subject, 39 hours after last of eight daily 50 mg doses): a nonsustained ventricular tachycardia (NSVT) that was associated with dyspnea in another
cardiovascular finding: troponin ([4]; Study 200207, one subject, second day of dosing with 20 mg): a mild troponin elevation in one subject
concentration at 39 hours ([4]; human, plasma, oral, one subject, 39 hours after the last of eight daily 50 mg doses, read-out: plasma concentration at the time of the NSVT event): < 1 ng/mL
half-life ([4]; human, plasma, oral, without boosting, repeat dosing, read-out: t½ (converted)): ~15 h
accumulation ratio based on AUC [4, 14]: 1.2
accumulation ratio based on C max [4, 14]: 1.1
accumulation ratio based on Cτ [4, 14]: 1.4
time to steady state ([4]; unboosted): 3 days
dose proportionality of AUC and C max ([4]; unboosted, 20 mg and 50 mg QD for 8 days): slightly less than dose‐proportional
increase in AUC and C max after a 2.5‐fold dose ([4]; unboosted, 20 mg to 50 mg QD for 8 days): approximately 2 fold
positive food effect ([5]; capsule formulation discussion): about 1.5 fold
metabolite detected in human plasma ([5]; co‐administration with RTV): O‐glucuronide
absorption with food ([5]; fed state (moderate or high fat meal)): delayed and more variable
increase in AUC with food ([5]; fed versus fasted): ~ 60%
increase in C max with food ([5]; fed versus fasted): ~ 60%
half-life ([5]; nonboosted): ~17 h
half-life ([5]; with RTV): ~34 h
dose proportionality of AUC and C max ([5]; single doses without RTV, 5‐100 mg (SDD, fasted)): proportional PK; also recorded: proportional to dose; also recorded: proportional pharmacokinetics
